# Several values for one entry are separate records, joined by “and”; a condition that tells them apart may be missing. Equal values may be shown once.
# Columns and labels:
# human α-thrombin = human α-thrombin (Homo sapiens, UniProt P00734); assay: Protease inhibition, Ki for human α-thrombin (fluorogenic substrate Z-Gly-Gly-Arg-AMC); type: biochemical; settings: replicates R1-R3
# Procedure, shortened: (§1)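 Ki values come from Cheng–Prusoff correction of IC50, itself fitted by four-parameter logistic regression of activity versus a no-peptide control. Assays used 2 nM human or 3 nM rat thrombin, 50 μM Z-Gly-Gly-Arg-AMC, 30 min kinetic fluorescence at 25 °C.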
# rat α-thrombin = target: T1, rat α-thrombin (Rattus norvegicus, UniProt P18292); assay: Protease inhibition, Ki for rat α-thrombin (fluorogenic substrate Z-Gly-Gly-Arg-AMC); type: biochemical; settings: replicates R1-R3
# T1 construct: rat α-thrombin (Molecular Innovations) were used at final concentrations of 2 nM and 3 nM; purchased Molecular Innovations
# Procedure, shortened: as §1
# porcine pepsin = target: T2, porcine pepsin (Sus scrofa, UniProt P00791); assay: Peptide stability in simulated gastric fluid (SGF); type: in vitro ADME
# T2 construct: 0.32 g of porcine pepsin (Sigma-Aldrich, P7125) was dissolved under gentle agitation; purchased Sigma-Aldrich P7125
# Procedure, shortened: (§2)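 Peptide from a 1 mM DMSO stock was added to fluid pre-warmed at 37 °C. SGF was pH 1.2 NaCl with porcine pepsin (0.32 g per 100 ml), and SIF was pH 6.8 potassium phosphate with porcine pancreatin (1 g per 100 ml). Supernatant peptide was quantified by LC–MS, with residual expressed as T1/T0.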
# [1] = Peptide stability in simulated intestinal fluid (SIF); type: in vitro ADME, porcine; settings: simulated gi fluid; 8 h, 37 °C, pH 6.8; read-out: Proteolytic stability: SIF (8 h) % remaining
# Procedure, shortened: as §2
# porcine pancreatin = assay: as above; type: in vitro ADME; settings: after 8 h vs 0 h (TIC); average of R1-R3
# Procedure, shortened: as §2
# [2] = Passive artificial membrane permeability (PAMPA)
# [3] = Metabolic stability in rat liver microsomes (RLMs); settings: rat, microsomes; for half-life: 0-60 min
# [4] = peptide 1.33E+02 uM, slope of proteolytic substrate cleavage over time
# T2 sequence (P00791 60-385): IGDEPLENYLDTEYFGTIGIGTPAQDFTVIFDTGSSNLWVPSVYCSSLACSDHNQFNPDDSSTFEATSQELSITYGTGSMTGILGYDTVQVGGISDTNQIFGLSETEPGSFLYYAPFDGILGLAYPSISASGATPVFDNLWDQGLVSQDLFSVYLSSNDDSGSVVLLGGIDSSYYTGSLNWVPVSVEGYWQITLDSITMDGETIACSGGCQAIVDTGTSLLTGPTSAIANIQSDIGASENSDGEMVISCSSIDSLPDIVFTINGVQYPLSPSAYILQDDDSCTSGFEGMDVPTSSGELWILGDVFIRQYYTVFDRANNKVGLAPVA
structure (smiles),measurement,setting,value
NC(=O)NCCC[C@@H]1NC(=O)[C@@H](NC(=O)c2ccc(Cl)s2)CNC(=O)CCSCc2cccc(n2)CSCCNC1=O [compound 20],"Human alpha thrombin inhibition, slope normalized to DMSO",human α-thrombin; peptide 1.02E-03 uM,98.9 and 95.1 and 89.8
same,"Human alpha thrombin inhibition, slope normalized to DMSO",human α-thrombin; peptide 1.04E+00 uM,90.6 and 90.5 and 80.1
same,"Human alpha thrombin inhibition, slope normalized to DMSO",human α-thrombin; peptide 1.27E-04 uM,100.0 and 98.9 and 93.2
same,"Human alpha thrombin inhibition, slope normalized to DMSO",human α-thrombin; peptide 1.30E-01 uM,69.5 and 98.5 and 88.7
same,"Human alpha thrombin inhibition, slope normalized to DMSO",human α-thrombin; [4],42.6 and 48.7 and 48.9
same,"Human alpha thrombin inhibition, slope normalized to DMSO",human α-thrombin; peptide 1.63E-02 uM,88.4 and 95.2 and 91.8
same,"Human alpha thrombin inhibition, slope normalized to DMSO",human α-thrombin; peptide 1.67E+01 uM,73.5 and 78.5 and 58.5
same,"Human alpha thrombin inhibition, slope normalized to DMSO",human α-thrombin; peptide 2.03E-03 uM,99.2 and 96.7 and 91.4
same,"Human alpha thrombin inhibition, slope normalized to DMSO",human α-thrombin; peptide 2.08E+00 uM,75.3 and 92.4 and 77.6
same,"Human alpha thrombin inhibition, slope normalized to DMSO",human α-thrombin; peptide 2.54E-04 uM,99.2 and 99.7 and 92.0
same,"Human alpha thrombin inhibition, slope normalized to DMSO",human α-thrombin; peptide 2.60E-01 uM,120.3 and 99.5 and 85.9
same,"Human alpha thrombin inhibition, slope normalized to DMSO",human α-thrombin; peptide 3.18E-05 uM,87.6 and 101.9 and 93.6
same,"Human alpha thrombin inhibition, slope normalized to DMSO",human α-thrombin; peptide 3.26E-02 uM,82.7 and 95.9 and 92.3
same,"Human alpha thrombin inhibition, slope normalized to DMSO",human α-thrombin; peptide 3.33E+01 uM,52.1 and 61.8 and 43.1
same,"Human alpha thrombin inhibition, slope normalized to DMSO",human α-thrombin; peptide 4.07E-03 uM,96.4 and 99.1 and 90.2
same,"Human alpha thrombin inhibition, slope normalized to DMSO",human α-thrombin; peptide 4.17E+00 uM,69.9 and 89.4 and 83.9
same,"Human alpha thrombin inhibition, slope normalized to DMSO",human α-thrombin; peptide 5.09E-04 uM,96.6 and 98.5 and 95.0
same,"Human alpha thrombin inhibition, slope normalized to DMSO",human α-thrombin; peptide 5.21E-01 uM,80.4 and 93.9 and 89.5
same,"Human alpha thrombin inhibition, slope normalized to DMSO",human α-thrombin; peptide 6.36E-05 uM,91.9 and 97.1 and 90.0
same,"Human alpha thrombin inhibition, slope normalized to DMSO",human α-thrombin; peptide 6.51E-02 uM,80.1 and 98.2 and 90.6
same,"Human alpha thrombin inhibition, slope normalized to DMSO",human α-thrombin; peptide 6.67E+01 uM,54.5 and 43.3 and 24.5
same,"Human alpha thrombin inhibition, slope normalized to DMSO",human α-thrombin; peptide 8.14E-03 uM,89.1 and 102.0 and 83.1
same,"Human alpha thrombin inhibition, slope normalized to DMSO",human α-thrombin; peptide 8.33E+00 uM,94.4 and 79.6 and 74.6
same,"Rat alpha thrombin inhibition, slope normalized to DMSO",rat α-thrombin; [4],12.2 and 19.4 and 24.3
same,"Rat alpha thrombin inhibition, slope normalized to DMSO",rat α-thrombin; peptide 1.67E+01 uM,41.8 and 45.6 and 42.9
same,"Rat alpha thrombin inhibition, slope normalized to DMSO",rat α-thrombin; peptide 2.08E+00 uM,71.5 and 79.0 and 60.4
same,"Rat alpha thrombin inhibition, slope normalized to DMSO",rat α-thrombin; peptide 3.33E+01 uM,25.4 and 28.0 and 27.8
same,"Rat alpha thrombin inhibition, slope normalized to DMSO",rat α-thrombin; peptide 4.17E+00 uM,66.5 and 70.9 and 68.3
same,"Rat alpha thrombin inhibition, slope normalized to DMSO",rat α-thrombin; peptide 6.67E+01 uM,16.3 and 21.9 and 8.4
same,"Rat alpha thrombin inhibition, slope normalized to DMSO",rat α-thrombin; peptide 8.33E+00 uM,56.5 and 61.2 and 59.0
same,"SGF stability, Residual peptide Average","porcine pepsin; after 8 h vs 0 h (TIC), average of R1-R3",96.69
same,"SGF stability, Residual peptide","porcine pepsin; after 8 h vs 0 h (TIC), single replicates R1-R3",100.68 and 91.38 and 98.01
same,remaining at 8 h,"porcine pepsin; simulated gi fluid, 8 h, 37 °C, pH 1.2, read-out: Proteolytic stability: SGF (8 h) % remaining",97 ± 5%
same,remaining at 8 h,[1],93 ± 13%
same,"SIF stability, Residual peptide Average",porcine pancreatin,92.33
same,PAMPA permeability: % permeability,"[2]; 50 μM, 12–18 h, acceptor concentration relative to equilibrium",0.99 ± 0.28%
same,Papp at 50 μM,"[2]; PAMPA, pH 7.4",0.0646 ×10⁻⁶ cm/s
same,Permeability% Average,"[2]; PAMPA, average of R1-R3",1.0%
same,Permeability% R1,"[2]; PAMPA, replicate R1, TIC of top well sample relative to sample at theoretical equilibrium",1.25%
same,Permeability% R3,"[2]; PAMPA, replicate R3, TIC of top well sample relative to sample at theoretical equilibrium",1.03%
same,microsomal CLint,"[3]; CL (ul/min/mg protein) R1, RLM CL, replicate R1",29.5 µL/min/mg
same,microsomal CLint,"[3]; CL (ul/min/mg protein) R2, RLM CL, replicate R2",24 µL/min/mg
same,microsomal CLint,"[3]; CL (ul/min/mg protein) R3, RLM CL, replicate R3",26.2 µL/min/mg
same,half-life,"[3]; Half Life (min) R1, RLM metabolic stability, replicate R1",46.9 min
same,half-life,"[3]; Half Life (min) R2, RLM metabolic stability, replicate R2",57.7 min
same,half-life,"[3]; Half Life (min) R3, RLM metabolic stability, replicate R3",53 min
same,microsomal CLint,"[3]; Metabolic stability: RLM CL (ul/min/mg), RLMs, mean and SD, three measurements",27 ± 2 µL/min/mg

# Reference: paper PMC11062899, “De novo development of small cyclic peptides that are orally bioavailable” (Nature Chemical Biology, 2023)
